Data as given in patent US12435088B2, “Salicyl-adenosinemonosulfamate analogs and uses thereof” (priority 2018, dated 2025).
≈ marks a conversion by molar mass, not a printed value. Where two headings read alike, the source gives them in different places. Marks after values point to notes of the source that are not given here.

Key:
[1] = system: Msm ΔM; type: cell-based, Mycobacterium smegmatis
[2] = system: Msm ΔE; type: cell-based, Mycobacterium smegmatis
[3] = system: M. tuberculosis H37Rv; experiment: Growth inhibition assay (Alamar Blue MIC) for M. tuberculosis H37Rv; type: cell-based, Mycobacterium tuberculosis; conditions: at least 90% inhibition, 7 days
[4] = system: Mtb; conditions: cited from earlier work
[5] = system: Msm ΔEM; type: cell-based, Mycobacterium smegmatis; conditions: GASTD + Fe medium
[6] = system: mammalian cells; conditions: cited from earlier work
[7] = system: Msm WT; experiment: Growth inhibition microdilution assay, Msm WT; type: cell-based, Mycobacterium smegmatis
[8] = system: M. smegmatis ΔEM-pMbtAtb; experiment: microbe, parasite or virus in culture; type: cell-based, Mycobacterium smegmatis; conditions: for MIC (μg/ml), mean / MIC (μg/ml), range: GASTD medium, three independent experiments
[9] = system: M. smegmatis ΔEM-pMbtAtb; experiment: Post-antibiotic effect (PAE) washout assay
Description: Cells from mid-log growth phase cultures of Msm ΔEM-pMbtAtb in GASTD medium (37° C., 170 rpm, OD600≈0.75) were harvested by centrifugation and washed in GASTD medium (3 times with I culture volume). The washed cells were resuspended in GASTD medium and transferred to U-bottom 96-well cell culture plates (Corning, Inc.) for inhibitor exposure at a cell density corresponding to OD600=1.0 (50 μL/well). […] Inhibitors were added from 10% DMSO stock solutions, with a final DMSO concentration of 1% in both inhibitor-exposed cultures and DMSO controls (no inhibitor). […] The 96-well plates were incubated for culture growth at 37° C. in a FLUOstar Optima microplate reader (BMG Labtech, Inc.), and OD600 readings were taken every 30 min following plate shaking (5 min, 200 rpm) for 5 days. The growth vs. time datasets were analyzed to determine the time at which cultures reached an exponential growth phase threshold of OD600=0.05 (≈5% of maximal growth) (FIG. 8). The time-to-threshold data were used to calculate PAE as the difference between the time-to-threshold values of the inhibitor-exposed culture and the control cultures (Stubbings, W. J., et al. (2004) J. Antimicrob. Chemother. 54, 139-143). Data presented are derived from three independent experiments.

[10] = target: MbtAtb (Mycobacterium tuberculosis (strain ATCC 25618 / H37Rv), UniProt P71716); conditions: cited from earlier work
[11] = system: MBT production in Msm ΔEM-pMbtAtb; type: cell-based, Mycobacterium smegmatis; conditions: FIG. 7, radio-TLC
[12] = system: PPT/PNP coupling system; experiment: Off-target control: effect on PPT/PNP coupling system of the HA-MesG assay; type: biochemical
Description: The adenylation activity of H10MbtA^opt and its inhibition were evaluated using a H10MbtA^opt-optimized variation of the hydroxylamine-7-methyl-6-thioguanosine (HA-MesG) spectrophotometric assay (Wilson, D. J., et al. (2010) Anal. Biochem. 404, 56-63). The assay was carried out in a 96-well plate format as previously reported (Davis, T. D., et al. (2016) Bioorg. Med. Chem. Lett. 26, 5340-5345). The assay reaction mixture was optimized for H10MbtAopt activity. Optimization experiments included evaluation of various concentrations of Tris·HCl (and pH), hydroxylamine, MesG, ATP, NaCl, MgCl2, glycerol, reducing agents (DTT and TCEP), and detergent (IGEPAL, CHAPS, and Triton-X100). Unless otherwise indicated for specific experiments, the optimized assay reaction mixture contained the following: 50 mM Tris·HCl, pH 8.0; 3 mM MgCl2; 0.5 mM DTT; 0.1 U purine nucleoside phosphorylase (PNP); 0.04 U inorganic pyrophosphatase (PPT); 450 mM hydroxylamine; 0.4 mM MesG; 1 mM ATP; 300 μM salicylic acid; 0.01% CHAPS buffer; 7.5% ultrapure glycerol; and H10MbtA^opt at concentrations noted for specific experiments. […] Reactions were preincubated for 10 min at 25° C. before being initiated by the addition of either salicylic acid for steady state kinetic analysis or H10MbtA^opt for progress curve analysis. The phosphorolysis of MesG was measured continuously at either regular 1-min intervals (for steady state kinetic analysis) or 25-sec intervals (for progress curves analysis) for up to 45 min, at 360 nm and 25° C. in a DTX 880 multimode detector microplate reader (Beckman Coulter, Inc.).

[13] = target: T1, H10MbtA^opt (MbtAtb) (Mycobacterium tuberculosis (strain ATCC 25618 / H37Rv), UniProt P71716); experiment: biochemical
[14] = target: T1, H10MbtA^opt (MbtAtb); experiment: Progress curve analysis of H10MbtA^opt inhibition (HA-MesG assay); type: biochemical
[15] = Table 8, GASTD + Fe medium, tested up to 64 μg/mL
[16] = IC50 (nM), H10MbtA^opt at 250 nM, two independent dose-response experiments
[17] = IC50, preliminary dose-response experiment (vi/vo vs. log[inhibitor]), FIG. 4A-C, single experiment, inhibition of H10MbtA^opt
[18] = Mycolicibacterium smegmatis, read-out: MIC (μg/ml), mean

T1 sequence (P71716 whole entry, added parts left off): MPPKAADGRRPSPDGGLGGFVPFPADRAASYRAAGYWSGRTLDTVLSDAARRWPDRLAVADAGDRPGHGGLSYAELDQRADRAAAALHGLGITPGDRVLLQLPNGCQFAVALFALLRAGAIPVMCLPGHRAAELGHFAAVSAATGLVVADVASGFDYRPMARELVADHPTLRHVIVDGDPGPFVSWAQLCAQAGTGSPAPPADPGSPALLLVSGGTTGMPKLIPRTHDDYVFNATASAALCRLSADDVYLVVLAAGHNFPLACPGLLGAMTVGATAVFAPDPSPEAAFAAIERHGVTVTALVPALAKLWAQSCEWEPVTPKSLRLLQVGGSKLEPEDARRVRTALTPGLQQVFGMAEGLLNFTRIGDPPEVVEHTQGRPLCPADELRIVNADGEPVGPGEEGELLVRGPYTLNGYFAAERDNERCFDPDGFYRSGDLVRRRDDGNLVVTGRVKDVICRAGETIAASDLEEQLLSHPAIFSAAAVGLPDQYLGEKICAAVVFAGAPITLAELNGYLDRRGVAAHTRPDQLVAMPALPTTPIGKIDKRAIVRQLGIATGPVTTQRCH
Sequence of MbtAtb (P71716 whole entry, looked up): as the sequence (P71716 whole entry, added parts left off) above

5′-O—[N-salicylsulfamoyl]adenosine [compound 1]
MIC ([1]; GASTD + Fe medium): >1000 µg/mL | MIC ([1]; GASTD medium (Fe-limiting)): >1000 µg/mL | MIC ([2]; GASTD + Fe medium): >1000 µg/mL | MIC ([2]; GASTD medium (Fe-limiting)): 0.5 to 1.0 µg/mL | MIC ([3]; GAST-D + Fe medium (100 μM FeCl3)): 0.5 to 1.0 µg/mL | MIC ([3]; GAST-D medium): 0.125 to 0.25 µg/mL | Mtb growth in the mouse lung ([4]; monotherapy at 5.6 or 16.7 mg/kg): significant reduction of Mtb growth in the mouse lung | Dose at which in vivo toxicity was observed ([4]; mouse): ≥ 16.7 mg/kg | MIC [5]: >1000 µg/mL | Cytotoxicity against mammalian cells [6]: not cytotoxic | MIC ([7]; GASTD + Fe medium): >1000 µg/mL | MIC ([7]; GASTD medium (Fe-limiting)): >1000 µg/mL | MIC ([8]; Table 7, Msm ΔEM-pMbtAtb (−/+), GASTD + Fe medium): >1000 µg/mL | MIC ([8]; Table 7, Msm ΔEM-pMbtAtb (−/+), GASTD medium (Fe-limiting)): 0.5 to 1.0 µg/mL | MIC [8, 15]: >64 µg/mL | MIC (μg/ml), mean ([8]; Table 8): 0.83 ± 8.17 µg/mL | MIC (μg/ml), range ([8]; Table 8): 0.5-1.0^b μg/ml | PAE ([9]; 1 h exposure at 5 × MIC): 9.4 ± 1.6 h | PAE ([9]; 1 h exposure at 50 × MIC): 14.2 ± 0.9 h | PAE ([9]; 1 h exposure at 100 × MIC): 34.5 ± 1.8 h | Inhibition of MbtAtb (previous in vitro studies) [10]: potent, selective, tight-binding inhibitor | Effect on MBT production [11]: inhibited MBT production

Nc1ncnc2c1ncn2[C@@H]1OC(CNS(=O)(=O)NC(=O)c2ccccc2O)[C@@H](O)[C@H]1O (some centres unmarked) [4a, salicyl-AMSN]
Fractional velocity v1/v0 ([12]; [inhibitor] = 4 μM): 0.94 | Fractional velocity v1/v0 ([12]; [inhibitor] = 40 µM): 0.96 | IC50 ([13]; H10MbtA^opt at 250 nM, two independent dose-response experiments, read-out: IC50): 246 ± 2.9 nM | MIC [8, 15]: >64 µg/mL | MIC (μg/ml), mean ([8]; Table 8): 1.00 ± 0 µg/mL (≈ 2.15 µM) | MIC (μg/ml), range ([8]; Table 8): 1.0 µg/mL (≈ 2.15 µM) | PAE ([9]; 1 h exposure at 5 × MIC): 10.6 ± 2.7 h | PAE ([9]; 1 h exposure at 50 × MIC): 18.7 ± 1.3 h | PAE ([9]; 1 h exposure at 100 × MIC): 23.1 ± 3.1 h | Ki ([14]; H10MbtA^opt 1 μM, inhibitor 4,000-1,041 nM, minimum of five independent experiments, read-out: Ki^app): 0.295 ± 0.0239 µM

CN(C[C@H]1O[C@@H](n2cnc3c(N)ncnc32)[C@H](O)[C@@H]1O)S(=O)(=O)NC(=O)c1ccccc1O [4b, N—(N-(((2R,3S,4R,5R)-5-(6-Amino-9H-purin-9-yl)-3,4-dihydroxytetrahydrofuran-2-yl)-methyl)-N-methylsulfamoyl)-2-hydroxybenzamide]
IC50 [13, 16]: 175 ± 4.3 nM | IC50 [13, 17]: 179 nM | MIC [8, 18]: 0.83 ± 0.17 µg/mL (≈ 1.73 µM) | MIC (μg/ml), range ([8]; Table 8): 0.5 to 1.0 µg/mL | PAE ([9]; 1 h exposure at 5 × MIC): 13.4 ± 2.6 h | PAE ([9]; 1 h exposure at 50 × MIC): 17.4 ± 4.7 h | PAE ([9]; 1 h exposure at 100 × MIC): 10.4 ± 2.2 h | Ki [14]: 0.159 ± 0.0081 µM

COc1ncnc2c1ncn2[C@@H]1O[C@H](CNS(=O)(=O)NC(=O)c2ccccc2O)[C@@H](O)[C@H]1O [compound 6, N—(N-(((2R,3S,4R,5R)-3,4-Dihydroxy-5-(6-methoxy-9H-purin-9-yl)tetrahydrofuran-2-yl)methyl)sulfamoyl)-2-hydroxybenzamide]
Fractional velocity v1/v0 ([12]; [inhibitor] = 4 μM): 1.00 | Fractional velocity v1/v0 ([12]; [inhibitor] = 40 µM): 1.00 | MIC ([3]; Mycobacterium tuberculosis, H37RV, 168 h, GAST-D + Fe medium (100 μM FeCl3), read-out: MIC): 0.5 to 1 µg/mL | MIC ([3]; Mycobacterium tuberculosis, H37RV, 168 h, GAST-D medium, read-out: MIC): 0.125 to 0.25 µg/mL (≈ 0.26 to 0.52 µM) | Inhibitor behavior (IC50≈½ [E]) ([13]; HA-MesG assay): tight-binding inhibitor behavior | IC50 [13, 16]: 289 ± 16.4 nM | IC50 [13, 17]: 273 nM | MIC [8, 18]: 5.33 ± 1.33 µg/mL (≈ 11.1 µM) | MIC [8, 15]: >64 µg/mL | MIC (μg/ml), range ([8]; Table 8): 4.0 to 8.0 µg/mL | Ki [14]: 0.277 ± 0.0122 µM | Mechanism of inhibition from progress curves ([14]; time-dependent inhibition of H10MbtAopt): slow-onset inhibitors

O=C(NS(=O)(=O)O)c1ccccc1O [compound 8, salicyl-sulfamate]
IC50 ([13]; IC50 (mM), effect on the MbtAtb-dependent signal in the HA-MesG assay, salicyl-AMS fragments, nonspecific inhibition control): ~1e+06 nM
